Test results reported in patent publication US6172109A, “13-Thia prostaglandins for use in glaucoma therapy” (priority 1998, dated 2001).
“Also recorded” adds a separate entry of the source.

Key:
[1] = test system: New Zealand (NZA) rabbit eye; test: ocular irritation in the New Zealand (NZA) rabbit (Hackett/McDonald scoring); type: in vivo
Method: Compound II and PGF2α isopropyl ester (PGF2α iPr) were tested for ocular irritation in the New Zealand (NZA) rabbit. The prostaglandins were administered in 30 μL of test formulation. Conjunctival hyperemia, swelling and discharge were evaluated using a system devised to grossly compare the irritation potential of prostaglandins in the NZA rabbit. Using the Hackett/McDonald scoring system (Hackett, R. B. and McDonald, T. O. "Eye Irritation" in Dermatotoxicology, 4th edition, Marzulli, F. N. and Maibach, H. I. editors, Hemisphere Publishing Corp., Washington D.C. (1991)), conjunctival hyperemia, conjunctival swelling, and ocular discharge were graded using a slit-lamp prior to compound instillation and 1, 2, 3, and 5 hours after topical ocular instillation of the test compound. The percentage of eyes scoring +2 or greater for all time points was calculated for each parameter (conjunctival hyperemia, conjunctival swelling, and ocular discharge). To facilitate comparison, PGF2α iPr was administered at the same time as the test agent.

cynomologus monkey eyes = test: IOP-lowering effect in cynomologus monkey eyes (lasered, ocular hypertensive); type: in vivo
Method: Compound II and PGF2α isopropyl ester (PGF2α iPr) were tested for IOP-lowering effect in cynomologus monkey eyes. The right eyes of the cynomologus monkeys in this study were previously given laser trabeculoplasty to induce ocular hypertension in the lasered eye. Animals had been trained to sit in restraint chairs and conditioned to accept experimental procedures without chemical restraint. IOP was determined with a pneumatonometer after light comeal anesthesia with dilute proparacaine. The test protocol included a five-dose b.i.d. treatment regimen because of the typical delayed response to prostaglandins. The test formulations were administered to the lasered right eyes, and the normal left eyes remained untreated for compound 11, or to both eyes for PGF2α isopropyl ester (PGF2α iPr). Baseline IOP values were determined prior to treatment with the test formulation, and IOP was determined 16 hours after the fourth dose for all compounds, 2, 4, and 6 hours after the fifth dose for compound II, and 1, 3 and 7 hours after the fifth dose for PGF2α iPr. Results are presented in Table 2 as the mean percent reduction of IOP from baseline +/- SEM. Prostaglandins were administered in 30 μL of test formulation.

[2] = test system: intraocular pressure (IOP); settings: cited from earlier work
[3] = 3 μg, topical ocular, 1, 2, 3, 5 hours
[4] = 10.0 μg, topical ocular, 1, 2, 3, 5 hours
[5] = 1.0 μg, topical ocular, administered at the same time as the test agent
[6] = 1.0 μg, topical ocular, second of two values, administered at the same time as the test agent

## CC(C)OC(=O)CCC/C=C\C[C@@H]1[C@@H](SC[C@@H](O)COc2cccc(Cl)c2)[C@H](O)C[C@@H]1O [Compound II, (5Z)-(9S, 11R, 15S)-9, 11, 15-trihydroxy-16-m-chlorophenoxy-13-thia-17,18, 19, 20-tetranor-5-prostenoic acid isopropyl ester]
[1]; [3]
  % Incidence, Conjunctival Hyperemia (eyes scoring +2 or greater for all time points): 0%
  % Incidence, Conjunctival Swelling (eyes scoring +2 or greater for all time points): 30%
  % Incidence, Discharge (eyes scoring +2 or greater for all time points): 0%
[1]; [4]
  % Incidence, Conjunctival Hyperemia (eyes scoring +2 or greater for all time points): 23%
  % Incidence, Conjunctival Swelling (eyes scoring +2 or greater for all time points): 33%
  % Incidence, Discharge (eyes scoring +2 or greater for all time points): 5%
[1]; Table 1
  ocular irritation / ocular side effects (in words): attenuates the ocular side effects; also recorded: low incidence of side effects
[1]; Table 1, listed as 11
  ocular irritation / ocular side effects (in words): low incidence of ocular irritation
Cynomologus monkey eyes; 1.0 μg b.i.d., 2 hours after fifth dose (2/5), baseline IOP 31.6 mm Hg
  Percent IOP Reduction +/-SEM: 13.9 +/- 6.8%
Cynomologus monkey eyes; 1.0 μg b.i.d., 4 hours after fifth dose (4/5), baseline IOP 31.6 mm Hg
  Percent IOP Reduction +/-SEM: 8.1 +/- 6.6%
Cynomologus monkey eyes; 1.0 μg b.i.d., 6 hours after fifth dose (6/5), baseline IOP 31.6 mm Hg
  Percent IOP Reduction +/-SEM: 10 +/- 6.2%
Cynomologus monkey eyes; 1.0 μg b.i.d., 16 hours after fourth dose (16/4), baseline IOP 31.6 mm Hg
  Percent IOP Reduction +/-SEM: 4.6 +/- 6.1%
Cynomologus monkey eyes; 3.0 μg b.i.d., 2 hours after fifth dose (2/5), baseline IOP 32.2 mm Hg
  Percent IOP Reduction +/-SEM: 23.3%
Cynomologus monkey eyes; 3.0 μg b.i.d., 4 hours after fifth dose (4/5), baseline IOP 32.2 mm Hg
  Percent IOP Reduction +/-SEM: 24.2 +/- 3.6%
Cynomologus monkey eyes; 3.0 μg b.i.d., 6 hours after fifth dose (6/5), baseline IOP 32.2 mm Hg
  Percent IOP Reduction +/-SEM: 24.9 +/- 3.4%
Cynomologus monkey eyes; 3.0 μg b.i.d., 16 hours after fourth dose (16/4), baseline IOP 32.2 mm Hg
  Percent IOP Reduction +/-SEM: 18.0 +/- 3.0%
Cynomologus monkey eyes; for the time period tested, Table 2
  IOP reduction (in words): significant degree of IOP reduction

## CCCCC[C@H](O)/C=C/[C@@H]1[C@@H](C/C=C\CCCC(=O)OC(C)C)[C@@H](O)C[C@H]1O [PGF2α iPr, PGF2α isopropyl ester, reference compound]
[1]; [5]
  % Incidence, Conjunctival Hyperemia (eyes scoring +2 or greater for all time points): 58%
  % Incidence, Conjunctival Swelling (eyes scoring +2 or greater for all time points): 67%
  % Incidence, Discharge (eyes scoring +2 or greater for all time points): 47%
[1]; [6]
  % Incidence, Conjunctival Hyperemia (eyes scoring +2 or greater for all time points): 58%
  % Incidence, Conjunctival Swelling (eyes scoring +2 or greater for all time points): 63%
  % Incidence, Discharge (eyes scoring +2 or greater for all time points): 48%
[1]; Table 1
  ocular irritation / ocular side effects (in words): relatively high incidence of hyperemia, conjunctival swelling and discharge
Cynomologus monkey eyes; 1.0 μg b.i.d., both eyes, 1 hour after fifth dose (1/5), baseline IOP 34.8 mm Hg
  Percent IOP Reduction +/-SEM: 27.6%
Cynomologus monkey eyes; 1.0 μg b.i.d., both eyes, 3 hours after fifth dose (3/5), baseline IOP 34.8 mm Hg
  Percent IOP Reduction +/-SEM: 38 +/- 1.7%
Cynomologus monkey eyes; 1.0 μg b.i.d., both eyes, 7 hours after fifth dose (7/5), baseline IOP 34.8 mm Hg
  Percent IOP Reduction +/-SEM: 25.6 +/- 14.4%
Cynomologus monkey eyes; 1.0 μg b.i.d., both eyes, 16 hours after fourth dose (16/4), baseline IOP 34.8 mm Hg
  Percent IOP Reduction +/-SEM: 5.8 +/- 4.0%

## CCCCC[C@H](O)/C=C/[C@@H]1[C@@H](C/C=C\CCCC(=O)O)[C@@H](O)C[C@H]1O [PGF2α]
[2]; after topical ocular instillation, background
  IOP lowering (in words): known to lower intraocular pressure (IOP)
[2]; in vivo
  side effects (in words): can cause conjunctival hyperemia and/or edema as well as inflammation
